Measured values reported in article PMC10795023, “Structural Optimization and Biological Evaluation of Isoxazolo[5,4-d]pyrimidines as Selective Toll-Like Receptor 7 Agonists” (ACS Omega, 2024).
Like-named read-outs stand apart in the source and are kept apart here.

Target: T1, hTLR7 (Homo sapiens, UniProt Q9NYK1)
T1 construct: host or cells: HEK293
T1 sequence (Q9NYK1 27-1049): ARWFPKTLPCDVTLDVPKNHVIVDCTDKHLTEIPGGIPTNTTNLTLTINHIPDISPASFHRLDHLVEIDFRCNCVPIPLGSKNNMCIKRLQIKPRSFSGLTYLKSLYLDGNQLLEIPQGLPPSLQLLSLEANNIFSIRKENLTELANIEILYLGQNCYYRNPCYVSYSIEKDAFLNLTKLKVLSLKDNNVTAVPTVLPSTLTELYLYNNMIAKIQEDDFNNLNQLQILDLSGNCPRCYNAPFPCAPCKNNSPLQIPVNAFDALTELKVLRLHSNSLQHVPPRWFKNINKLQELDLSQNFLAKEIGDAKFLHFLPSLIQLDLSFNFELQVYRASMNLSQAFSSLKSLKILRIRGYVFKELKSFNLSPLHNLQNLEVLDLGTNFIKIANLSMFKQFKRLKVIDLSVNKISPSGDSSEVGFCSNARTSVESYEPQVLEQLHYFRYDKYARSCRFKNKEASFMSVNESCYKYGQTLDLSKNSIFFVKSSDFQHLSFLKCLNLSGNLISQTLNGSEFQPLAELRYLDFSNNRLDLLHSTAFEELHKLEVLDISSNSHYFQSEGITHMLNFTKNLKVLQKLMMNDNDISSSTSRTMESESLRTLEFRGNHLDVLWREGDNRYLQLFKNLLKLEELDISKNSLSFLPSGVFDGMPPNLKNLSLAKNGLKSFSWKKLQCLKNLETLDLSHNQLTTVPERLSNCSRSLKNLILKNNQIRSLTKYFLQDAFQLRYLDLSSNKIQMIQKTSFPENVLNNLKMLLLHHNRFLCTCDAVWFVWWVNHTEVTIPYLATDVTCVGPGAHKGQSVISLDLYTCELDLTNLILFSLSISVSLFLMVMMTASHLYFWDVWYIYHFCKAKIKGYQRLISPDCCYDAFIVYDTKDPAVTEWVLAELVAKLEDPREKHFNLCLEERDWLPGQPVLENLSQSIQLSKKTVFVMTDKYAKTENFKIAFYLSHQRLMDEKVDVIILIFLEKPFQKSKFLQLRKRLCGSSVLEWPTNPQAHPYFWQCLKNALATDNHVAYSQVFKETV
Test: TLR7 agonist activity, HEK293 hTLR7 SEAP reporter assay
Format: cell-based
Details: for EC50: HEK293 cotransfected with hTLR7 and inducible SEAP reporter gene, 24 h treatment, average ± SD of three independent replicates, n.a. = not active; for plateau / maximum response (efficacy) / loss of activity/potency on TLR7 relative to parent compound 21a: HEK293-hTLR7 SEAP; for plateau / maximum response (efficacy): less than twofold increase in maximum response; for loss of activity/potency on TLR7 relative to parent compound 21a: EC50 compared with 21a
Description: TLR7 agonist activities were determined using the HEK293 cell line, which was cotransfected with the hTLR7 gene and an inducible SEAP reporter gene (InvivoGen, San Diego, California, USA) as described previously.[34] Briefly, cells were seeded in 96-well plates (3 × 10^4 cells/well) and incubated at 5% CO2 and 37 °C. After 24 h, the cells were treated with the solutions of the compounds in DMSO. Imiquimod was used as a PC. The cells were incubated again for 24 h under the same conditions. The activity of SEAP in the supernatant of the cells was measured using the QUANTI-Blue reagent (InvivoGen, San Diego, California, USA), according to the manufacturer's protocol. EC50 values were determined using GraphPad Prism 9.2.0. software (San Diego, California, USA) using the nonlinear regression curve fit and four-parameter logistic equation. All experiments were performed in three independent biological replicates. Values are given as averages from the independent measurements with standard deviations calculated.

`CC1CN(c2nc(C(F)(F)F)nc3onc(-c4ccc(F)cc4)c23)CCN1` (stereo not shown) [Compound 21h, 3-(4-Fluorophenyl)-4-(3-methylpiperazin-1-yl)-6-(trifluoromethyl)isoxazolo[5,4-d]pyrimidine] was tested, and the EC50 was “lacked activity”.

With `Fc1ccc(-c2noc3nc(C(F)(F)F)nc(N4CCCC4)c23)cc1` [Compound 21v, 3-(4-Fluorophenyl)-4-(pyrrolidin-1-yl)-6-(trifluoromethyl)isoxazolo[5,4-d]pyrimidine] the EC50 (read-out: EC50) was > 150 µM.

`CN1CCN(c2nc(C(F)(F)F)nc3onc(-c4ccc(F)cc4)c23)CC1` [Compound 21j, 3-(4-Fluorophenyl)-4-(4-methylpiperazin-1-yl)-6-(trifluoromethyl)isoxazolo[5,4-d]pyrimidine] was tested, and the EC50 was “lacked activity” and the EC50 (read-out: EC50) was > 150 µM.

For `CC1CCCC(c2nc(C(F)(F)F)nc3onc(-c4ccc(F)cc4)c23)C1` (stereo not shown) [Compound 21y, 3-(4-Fluorophenyl)-4-(3-methylcyclohexyl)-6-(trifluoromethyl)isoxazolo[5,4-d]pyrimidine], the “plateau / maximum response (efficacy)” value was “low plateau response”, the EC50 was “retained its activity” and the EC50 (read-out: EC50) was 15.9 ± 0.9 µM.

`CC1(C)CCCN(c2nc(C(F)(F)F)nc3onc(-c4ccc(F)cc4)c23)C1` [Compound 21o, 4-(3,3-Dimethylpiperidin-1-yl)-3-(4-fluorophenyl)-6-(trifluoromethyl)isoxazolo[5,4-d]pyrimidine] was tested, and the EC50 was “slightly less potent” and the EC50 (read-out: EC50) was 24.5 ± 1.6 µM.

In the case of `CC(C)C1CCCN(c2nc(C(F)(F)F)nc3onc(-c4ccc(F)cc4)c23)C1` (stereo not shown) [Compound 21q, 3-(4-Fluorophenyl)-4-(3-isopropylpiperidin-1-yl)-6-(trifluoromethyl)isoxazolo[5,4-d]pyrimidine], the “loss of activity/potency on TLR7 relative to parent compound 21a” value is reported as “Approximately 10 fold” and the EC50 (read-out: EC50) is reported as 81.1 ± 7 µM.

With `CC1CCCN(c2nc(C(F)(F)F)nc3onc(-c4cccc([N+](=O)[O-])c4)c23)C1` (stereo not shown) [Compound 19a, 4-(3-Methylpiperidin-1-yl)-3-(3-nitrophenyl)-6-(trifluoromethyl)isoxazolo[5,4-d]pyrimidine] the EC50 was “did not offer any change in activity”.

For `CC1CCCCN1c1nc(C(F)(F)F)nc2onc(-c3ccc(F)cc3)c12` (stereo not shown) [Compound 21e, 3-(4-Fluorophenyl)-4-(2-methylpiperidin-1-yl)-6-(trifluoromethyl)isoxazolo[5,4-d]pyrimidine], the “loss of activity/potency on TLR7 relative to parent compound 21a” value was “Approximately 10 fold”, the “plateau / maximum response (efficacy)” value was “low plateau response” and the EC50 (read-out: EC50) was 63.3 ± 9.8 µM.

In the case of `CC1CCCN(c2nc(C(F)(F)F)nc3onc(-c4ccc(C(F)(F)F)cc4)c23)C1` (stereo not shown) [Compound 16a, 4-(3-Methylpiperidin-1-yl)-6-(trifluoromethyl)-3-(4-(trifluoromethyl)phenyl)isoxazolo[5,4-d]pyrimidine], the EC50 (read-out: EC50) is reported as > 150 µM.

With `CC1CCCN(c2nc(C(F)(F)F)nc3onc(-c4ccccc4)c23)C1` (stereo not shown) [Compound 14a, 4-(3-Methylpiperidin-1-yl)-3-phenyl-6-(trifluoromethyl)isoxazolo[5,4-d]pyrimidine] the EC50 was “inactive”.

For `CC1CCN(c2nc(C(F)(F)F)nc3onc(-c4ccc(F)cc4)c23)CC1` [Compound 21f, 3-(4-Fluorophenyl)-4-(4-methylpiperidin-1-yl)-6-(trifluoromethyl)isoxazolo[5,4-d]pyrimidine], the “loss of activity/potency on TLR7 relative to parent compound 21a” value was “Approximately 10 fold”, the “plateau / maximum response (efficacy)” value was “low plateau response” and the EC50 (read-out: EC50) was 68 ± 8.1 µM.

For `Fc1ccc(-c2noc3nc(C(F)(F)F)nc(NC4CC4)c23)cc1` [Compound 21c, N-Cyclopropyl-3-(4-fluorophenyl)-6-(trifluoromethyl)isoxazolo[5,4-d]pyrimidin-4-amine], the EC50 was “inactive”.

In the case of `CC1CCCN(c2nc(C(F)(F)F)nc3onc(-c4ccc(F)c(Br)c4)c23)C1` (stereo not shown) [Compound 22, 3-(3-Bromo-4-fluorophenyl)-4-(3-methylpiperidin-1-yl)-6-(trifluoromethyl)isoxazolo[5,4-d]pyrimidine], the EC50 (read-out: EC50) is reported as 16.4 ± 0.1 µM.

With `CC(C)CNc1nc(C(F)(F)F)nc2onc(-c3ccccc3)c12` [Compound 14b, N-Isobutyl-3-phenyl-6-(trifluoromethyl)isoxazolo[5,4-d]pyrimidin-4-amine] the EC50 was “inactive”.

With `CC1CN(c2nc(C(F)(F)F)nc3onc(-c4ccc(F)cc4)c23)CCO1` (stereo not shown) [Compound 21g, 3-(4-Fluorophenyl)-4-(2-methylmorpholino)-6-(trifluoromethyl)isoxazolo[5,4-d]pyrimidine] the “plateau / maximum response (efficacy)” value was “low plateau response”, the EC50 was “retained the potency” and the EC50 (read-out: EC50) was 11 ± 0.1 µM.

With `CC(C)CNc1nc(C(F)(F)F)nc2onc(-c3ccc(F)cc3)c12` [Compound 21b, 3-(4-Fluorophenyl)-N-isobutyl-6-(trifluoromethyl)isoxazolo[5,4-d]pyrimidin-4-amine] the EC50 was “no activity observed”.

Work on `CC1CCCN(c2nc(C(F)(F)F)nc3onc(-c4ccc(Cl)cc4)c23)C1` (stereo not shown) [Compound 15a, 3-(4-Chlorophenyl)-4-(3-methylpiperidin-1-yl)-6-(trifluoromethyl)isoxazolo[5,4-d]pyrimidine] yielded an EC50 (read-out: EC50) of 21.4 ± 2.8 µM.

For `CC(C)CNc1nc(C(F)(F)F)nc2onc(-c3ccc(Cl)cc3)c12` [Compound 15b, 3-(4-Chlorophenyl)-N-isobutyl-6-(trifluoromethyl)isoxazolo[5,4-d]pyrimidin-4-amine], the EC50 was “agonist activity was lost”.

With `COC1CCN(c2nc(C(F)(F)F)nc3onc(-c4ccc(F)cc4)c23)C1` (stereo not shown) [Compound 21t, 3-(4-Fluorophenyl)-4-(3-methoxypyrrolidin-1-yl)-6-(trifluoromethyl)isoxazolo[5,4-d]pyrimidine] the EC50 (read-out: EC50) was > 150 µM.

`CC1CCCN(c2nc(C(F)(F)F)nc3onc(Cc4ccc(F)c(F)c4)c23)C1` (stereo not shown) [Compound 23a, 3-(3,4-Difluorobenzyl)-4-(3-methylpiperidin-1-yl)-6-(trifluoromethyl)isoxazolo[5,4-d]pyrimidine] was tested, and the EC50 (read-out: EC50) was 19.9 ± 3.1 µM.

`CC(C)CNc1nc(C(F)(F)F)nc2onc(-c3cccc([N+](=O)[O-])c3)c12` [Compound 19b, N-Isobutyl-3-(3-nitrophenyl)-6-(trifluoromethyl)isoxazolo[5,4-d]pyrimidin-4-amine] was tested, and the EC50 was “did not offer any change in activity”.

With `Fc1ccc(-c2noc3nc(C(F)(F)F)nc(N4CCCC5(CC5)C4)c23)cc1` [Compound 21p, 3-(4-Fluorophenyl)-4-(5-azaspiro[2.5]octan-5-yl)-6-(trifluoromethyl)isoxazolo[5,4-d]pyrimidine] the EC50 was “slightly less potent” and the EC50 (read-out: EC50) was 17.5 ± 3 µM.
